From ChEMBL document CHEMBL4354830, “Discovery of Benzo[cd]indol-2(1H)-ones and Pyrrolo[4,3,2-de]quinolin-2(1H)-ones as Bromodomain and Extra-Terminal Domain (BET) Inhibitors with Selectivity for the First Bromodomain with Potential High Efficiency against Acute Gouty Arthritis” (J Med Chem, 2019)
Calls of active or inactive are those of the source. No cut-off for these calls is given here.

Experiments:
Homo sapiens [1] = organism: Homo sapiens; assay: Selectivity index, ratio of IC50 for BRD2 BD2 (unknown origin) to IC50 for BRD2 BD1 (unknown origin) by AlphaScreen assay
[2] = molecular target: T1, Bromodomain-containing protein 2 (Homo sapiens, UniProt P25440); assay: Displacement of tetra-acetylated histone H4 peptide (1-21) from BRD2 BD1 (unknown origin) incubated for 30 mins followed by further incubation with tetra-acetylated histone H4 peptide (1-21) for 30 mins by Alphascreen assay
T1 sequence (P25440 whole entry): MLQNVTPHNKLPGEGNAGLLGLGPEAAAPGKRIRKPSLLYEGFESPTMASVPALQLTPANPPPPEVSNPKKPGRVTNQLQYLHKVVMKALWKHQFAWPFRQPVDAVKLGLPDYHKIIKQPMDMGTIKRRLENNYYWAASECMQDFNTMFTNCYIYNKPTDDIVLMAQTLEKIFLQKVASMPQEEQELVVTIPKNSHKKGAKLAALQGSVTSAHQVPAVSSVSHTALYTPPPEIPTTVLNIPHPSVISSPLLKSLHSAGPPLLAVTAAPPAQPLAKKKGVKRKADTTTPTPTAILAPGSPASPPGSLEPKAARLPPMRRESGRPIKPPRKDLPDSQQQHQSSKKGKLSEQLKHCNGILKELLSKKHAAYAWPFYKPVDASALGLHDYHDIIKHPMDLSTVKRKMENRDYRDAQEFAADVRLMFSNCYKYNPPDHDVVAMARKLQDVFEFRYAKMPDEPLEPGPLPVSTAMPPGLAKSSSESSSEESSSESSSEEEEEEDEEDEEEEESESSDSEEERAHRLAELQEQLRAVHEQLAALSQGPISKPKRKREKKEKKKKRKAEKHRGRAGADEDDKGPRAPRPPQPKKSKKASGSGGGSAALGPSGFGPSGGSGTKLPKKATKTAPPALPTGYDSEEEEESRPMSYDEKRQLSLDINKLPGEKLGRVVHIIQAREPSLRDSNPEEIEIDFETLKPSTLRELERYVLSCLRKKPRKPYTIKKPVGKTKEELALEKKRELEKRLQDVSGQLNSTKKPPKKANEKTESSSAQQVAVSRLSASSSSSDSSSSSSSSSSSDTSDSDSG

[3] = molecular target: T2, Bromodomain-containing protein 4 (Homo sapiens, UniProt O60885); assay: Inhibition of BRD4 BD1 in human THP1 cells assessed as inhibition of MSU-induced pyroptosis by measuring caspase+/PI+ cells at 1 uM incubated for 1 hr followed by MSU treatment and measured after 12 hrs by PI/caspase 1 double staining based flow cytometric analysis (reference value: 12.7 %); assay type: cell-based; set-up: scale not given: the % may be the effect or the level left
[4] = molecular target: T2, Bromodomain-containing protein 4; assay: Binding affinity to immobilized DNA-tagged human BRD4 BD2 by BROMOscan analysis
[5] = Metabolic stability in dog liver microsomes assessed as intrinsic clearance measured per mg protein upto 60 mins by LC/MS-MS analysis; assay type: ADME, Canis lupus familiaris, Microsome; conditions: read-out: CLH
[6] = Metabolic stability in dog liver microsomes assessed as half life measured upto 60 mins by LC/MS-MS analysis; assay type: ADME, Canis lupus familiaris, Microsome
Rattus norvegicus [7] = assay: Anti-arthritic activity in Sprague-Dawley rat model of acute gout arthritis assessed as reduction in MSU-induced synovial hyperplasia at 1 mg/kg, ia administered 1 hr before MSU challenge and measured upto 24 hrs by hematoxylin and eosin staining based histopathological analysis; assay type: functional, organism-based
[8] = molecular target: T2, Bromodomain-containing protein 4; assay: Inhibition of BRD4 BD1 in human THP1 cells assessed as inhibition of MSU-induced pyroptosis by measuring caspase-/PI- cells at 1 uM incubated for 1 hr followed by MSU treatment and measured after 12 hrs by PI/caspase 1 double staining based flow cytometric analysis (reference value: 76.2 %); assay type: cell-based; set-up: scale not given: the % may be the effect or the level left
[9] = Metabolic stability in human liver microsomes assessed as intrinsic clearance measured per mg protein upto 60 mins by LC/MS-MS analysis; assay type: ADME, Microsome; conditions: read-out: CLH
[10] = molecular target: Bromodomain-containing protein 3 (Homo sapiens, UniProt Q15059); assay: Displacement of tetra-acetylated histone H4 peptide (1-21) from BRD3 BD2 (unknown origin) incubated for 30 mins followed by further incubation with tetra-acetylated histone H4 peptide (1-21) for 30 mins by Alphascreen assay
Sequence of Bromodomain-containing protein 3 (Q15059 whole entry): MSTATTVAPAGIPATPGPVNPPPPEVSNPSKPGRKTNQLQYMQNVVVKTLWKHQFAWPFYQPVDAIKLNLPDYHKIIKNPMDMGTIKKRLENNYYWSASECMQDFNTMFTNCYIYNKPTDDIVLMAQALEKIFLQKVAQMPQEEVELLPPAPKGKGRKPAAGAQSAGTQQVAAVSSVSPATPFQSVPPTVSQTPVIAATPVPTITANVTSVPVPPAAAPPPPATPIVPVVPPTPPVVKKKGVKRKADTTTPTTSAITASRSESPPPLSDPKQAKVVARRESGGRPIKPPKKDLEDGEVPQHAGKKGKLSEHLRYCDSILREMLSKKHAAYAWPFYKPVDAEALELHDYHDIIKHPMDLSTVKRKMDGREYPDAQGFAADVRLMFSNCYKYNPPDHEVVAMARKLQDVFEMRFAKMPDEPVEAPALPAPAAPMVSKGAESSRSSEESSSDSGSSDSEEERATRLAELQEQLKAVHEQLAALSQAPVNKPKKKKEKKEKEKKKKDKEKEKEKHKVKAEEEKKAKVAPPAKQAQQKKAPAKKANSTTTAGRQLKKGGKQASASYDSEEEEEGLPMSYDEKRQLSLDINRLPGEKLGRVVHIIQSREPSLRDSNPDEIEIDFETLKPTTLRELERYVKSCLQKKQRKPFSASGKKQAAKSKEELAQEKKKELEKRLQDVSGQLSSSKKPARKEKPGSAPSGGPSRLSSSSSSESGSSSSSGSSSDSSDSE

[11] = molecular target: T1, Bromodomain-containing protein 2; assay: Displacement of tetra-acetylated histone H4 peptide (1-21) from BRD2 BD2 (unknown origin) incubated for 30 mins followed by further incubation with tetra-acetylated histone H4 peptide (1-21) for 30 mins by Alphascreen assay
[12] = Metabolic stability in rat liver microsomes assessed as intrinsic clearance measured per mg protein upto 60 mins by LC/MS-MS analysis; assay type: ADME, Microsome; conditions: read-out: CLH
[13] = molecular target: T2, Bromodomain-containing protein 4; assay: Inhibition of BRD4 BD1 in human THP1 cells assessed as inhibition of MSU-induced ASC activation at 1 uM incubated for 1 hr followed by MSU treatment and measured after 12 hrs by immunofluorescence based confocal microscopy analysis; assay type: cell-based
Homo sapiens [14] = organism: Homo sapiens; assay: Selectivity index, ratio of IC50 for BRPF1b (unknown origin) to IC50 for recombinant human N-terminal His-tagged BRD4 BD1 (44 to 170 residues) expressed in Escherichia coli by AlphaScreen assay
Rattus norvegicus [15] = assay: In vivo inhibition of MSU-induced ASC activation in synovial tissue of Sprague-Dawley rat model of acute gout arthritis at 1 mg/kg, ia administered 1 hr before MSU challenge and measured upto 24 hrs by immunofluorescence based confocal microscopy analysis; assay type: functional, organism-based
Rattus norvegicus [16] = assay: In vivo inhibition of MSU-induced NF-kappaB P65 phosphorylation in synovial tissue of Sprague-Dawley rat model of acute gout arthritis at 1 mg/kg, ia administered 1 hr before MSU challenge and measured upto 24 hrs by Western blot analysis; assay type: functional, organism-based
Peregrin = molecular target: T3, Peregrin (Homo sapiens, UniProt P55201); assay: Displacement of tetra-acetylated histone H4 peptide (1-21) from BRPF1b (unknown origin) incubated for 30 mins followed by further incubation with tetra-acetylated histone H4 peptide (1-21) for 30 mins by Alphascreen assay
T3 sequence (P55201 whole entry): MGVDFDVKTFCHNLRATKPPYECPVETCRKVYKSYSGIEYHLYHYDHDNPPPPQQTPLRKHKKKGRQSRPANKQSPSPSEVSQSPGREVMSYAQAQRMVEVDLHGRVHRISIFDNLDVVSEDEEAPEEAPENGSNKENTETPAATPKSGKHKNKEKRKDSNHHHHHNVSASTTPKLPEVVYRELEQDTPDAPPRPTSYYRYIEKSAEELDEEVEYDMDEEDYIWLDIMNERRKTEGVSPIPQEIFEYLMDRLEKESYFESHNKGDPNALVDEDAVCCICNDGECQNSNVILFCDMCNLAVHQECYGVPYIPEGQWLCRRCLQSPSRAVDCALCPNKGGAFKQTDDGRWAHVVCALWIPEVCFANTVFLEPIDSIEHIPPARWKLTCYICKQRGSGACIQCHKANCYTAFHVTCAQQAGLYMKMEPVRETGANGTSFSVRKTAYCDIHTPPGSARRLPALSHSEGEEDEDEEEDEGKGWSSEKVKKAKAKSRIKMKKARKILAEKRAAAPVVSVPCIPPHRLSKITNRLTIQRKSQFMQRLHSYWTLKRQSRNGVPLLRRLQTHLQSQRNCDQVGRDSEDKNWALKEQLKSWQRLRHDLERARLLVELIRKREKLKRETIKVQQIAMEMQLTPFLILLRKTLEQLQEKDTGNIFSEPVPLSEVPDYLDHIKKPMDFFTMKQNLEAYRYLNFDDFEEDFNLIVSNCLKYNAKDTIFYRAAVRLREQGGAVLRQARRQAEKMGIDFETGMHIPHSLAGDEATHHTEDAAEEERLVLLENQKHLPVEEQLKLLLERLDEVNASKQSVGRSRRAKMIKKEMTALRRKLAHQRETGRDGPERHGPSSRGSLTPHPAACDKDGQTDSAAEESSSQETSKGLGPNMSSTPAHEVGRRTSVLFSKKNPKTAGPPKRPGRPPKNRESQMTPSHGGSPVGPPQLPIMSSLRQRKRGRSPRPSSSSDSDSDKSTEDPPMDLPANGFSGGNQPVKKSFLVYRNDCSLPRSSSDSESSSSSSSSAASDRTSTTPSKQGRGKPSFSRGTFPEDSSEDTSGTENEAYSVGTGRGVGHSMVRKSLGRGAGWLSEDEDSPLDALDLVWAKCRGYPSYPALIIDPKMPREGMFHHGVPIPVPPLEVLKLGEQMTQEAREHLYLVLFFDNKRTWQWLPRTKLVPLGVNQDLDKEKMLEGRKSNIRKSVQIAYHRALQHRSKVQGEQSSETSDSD

[17] = Metabolic stability in monkey liver microsomes assessed as half life measured upto 60 mins by LC/MS-MS analysis; assay type: ADME, Macaca mulatta, Microsome; conditions: rhesus monkey
Rattus norvegicus [18] = assay: Anti-arthritic activity in Sprague-Dawley rat model of acute gout arthritis assessed as reduction in MSU-induced neutrophil infiltration in synovial tissue at 1 mg/kg, ia administered 1 hr before MSU challenge and measured upto 24 hrs hematoxylin and eosin staining based histopathological analysis; assay type: functional, organism-based
Rattus norvegicus [19] = assay: Anti-arthritic activity in Sprague-Dawley rat model of acute gout arthritis assessed as reduction in MSU-induced joint swelling at 1 mg/kg, ia administered 1 hr before MSU challenge and measured upto 24 hrs; assay type: functional, organism-based

Ratio IC50 (Homo sapiens [1]): 2.4
IC50 [2]: 8.95 µM
Activity [3]: 4.4%
Kd [4]: > 25 µM
microsomal CLint [5]: 133 µL/min/mg
half-life [6]: 10.4 min
Activity [8]: 86.6%
microsomal CLint [9]: 93.5 µL/min/mg
IC50 [10]: 49.8 µM
IC50 [11]: 21.4 µM
microsomal CLint [12]: 147 µL/min/mg
inhibition [13]: Active
Ratio IC50 (Homo sapiens [14]): 6.5
IC50 (Peregrin): 568 nM
half-life [17]: 10.3 min
Structure (SMILES): COc1ccccc1S(=O)(=O)Nc1ccc2c3c(cc(-n4cnc(C)c4)nc13)C(=O)N2C
inhibition (Rattus norvegicus [7]): Active
inhibition (Rattus norvegicus [15]): Active
inhibition (Rattus norvegicus [16]): Active
inhibition (Rattus norvegicus [18]): Active
inhibition (Rattus norvegicus [19]): Active
